Here are results for 14 molecules from article PMC11809512, “Looking for approved-medicines to be repositioned as anti-Trypanosoma cruzi agents. Identification of new chemotypes with good individual- or in combination-biological behaviours” (Memórias do Instituto Oswaldo Cruz, 2025).

Structures are written as SMILES. Where two headings read alike, the source gives them in different places.

Assay [1] relates to epimastigotes of T. cruzi (Tulahuen 2 strain, DTU Tc VI). The assay can be described thus: Screening / IC50 against T. cruzi epimastigotes (growth, absorbance 610 nm, 5 days). It is filed as cell-based, Trypanosoma cruzi. To be noted: for SIepi: SIepi = IC50,J774.1A/IC50,epi; for IC50: Trypanosoma cruzi, 120 h, read-out: IC50,epi; for anti-epimastigote activity in the initial screening (in words): 25 µM or 100 µg/mL, cut-off more than 65% inhibition. As to the method: (§1) Screening - Entities, dissolved in dimethylsulfoxide (DMSO, Sigma) before use and then diluted in a culture milieu, were firstly tested against epimastigotes of T. cruzi [Tulahuen 2 strain, discrete typing unit (DTU) Tc VI] as previously described.[14] ^, [15] […] The system was incubated at 28 °C for five days and to assess cell proliferation, cell density was monitored at 610 nm at time 0 (Ap0) and five days post incubation (Ap). All measures were normalised to the control population at day 0 (Ac0) and at day 5 (Ac5). Control parasites were incubated with 0.4% DMSO, corresponding to the highest DMSO concentration of the well. The percentage of parasite inhibition was calculated as: […]. This assay was independently performed three times. […] Secondly,[16] Vero (ATCC® CCL-81™) cells were infected with T. cruzi metacyclic trypomastigotes from 15 days old Dm28 clone (DTU Tc I) epimastigote cultures. Subsequently, the trypomastigotes harvested from this culture were used to infect further Vero cell cultures at a multiplicity of infection of 10. These trypomastigote-infected Vero cell cultures were incubated at 37 °C in humidified air and 5% CO2 for five to seven days. After this time, cellular trypomastigotes were collected from the supernatant by centrifugation at 3,000 × g for 10 min. The trypomastigote-containing pellets were resuspended in RPMI media supplemented with 5% foetal bovine serum (FBS) and penicillin/streptomycin at a final density of 1 × 10^8 parasites/mL. For viability assays, 1 × 10^7 trypomastigotes were seeded in black 96 well plates in RPMI and incubated with increasing concentrations of the entities under study for 24 h. Viability was analysed using resazurin, which is reduced to highly fluorescent resorufin. 50 μL of resazurin solution (2 mg/mL in RPMI) were added to each well and incubated for 4 h at 37 °C. Fluorescence (excitation 530 nm / emission 590 nm) was measured in a Thermo Scientific Varioskan® Flash Multimode plate spectrofluorimeter instrument. Untreated parasites were used as negative controls (100% of viability). […] Thirdly, for infection persistence analysis,[16] trypomatigotes Vero cells (at a multiplicity of infection of 10) growing in RPMI were trypsinised and replated in 24-wll plates (2-3 × 10^5 cells/well). […] After 24 h of incubation, cells were washed with phosphate-buffered saline (PBS), fixed with 4% paraformaldehyde, and stained with DAPI. Infected cells and amastigotes per cell were counted from randomly selected fields (400 cells per conditions). Two independent infections with trypomastigotes pre-treated with entities by two independent technicians were analysed. The percentage of uninfected Vero cells over total cells, as well as the percentage of decrease in the number of amastigotes per infected cell, was counted for each studied compound concentration tested and normalised against control untreated parasites.

A further assay deals with J774.1A macrophages. The assay can be described thus: Cytotoxicity on macrophages (MTT, 48 h). It is filed as cell-based. To be noted: Macrophage, read-out: IC50,J774.1A. As to the method:
Cytotoxicity - J774.1A macrophages (ATCC® TIB67™) were grown in DMEM milieu supplemented with 10% […] FBS, 1% L-glutamine, 1% streptomycin, and 100 units/mL penicillin. Cell viability was assessed using the MTT protocol. […] Cells were grown in 96-well plates (5 × 10^4 cells/well) for 24 h. Cultures were carried out at 37 °C in a humidified atmosphere with 5% CO2 and incubated with the compounds at different concentrations for 48 h. After incubation, the milieu was removed, and the cells were treated with 100 μL of 0.4 mg/mL MTT for 4 h at 37 °C. Subsequently, 100 μL of DMSO was added to the mixture. The solubilised formazan product was quantified through absorbance measurements at 570 nm. The absorbance values were transformed to the percentage of cytotoxicity compared to the negative controls.

A further assay concerns epimastigote T. cruzi. Put plainly: Anti-epimastigote activity in modified milieu (excess Ca2+, glutamate or N-acetyl-L-cysteine, 1 mM). It is filed as cell-based. As to conditions: Trypanosoma cruzi; for inhibition at 25 µM: read-out: Percentage of growth inhibition at 25 µM. As to the method: Three controls of untreated parasites and containing excess of calcium (II), glutamate or N-acetyl-L-cysteine (1 mM) were included. All treated and untreated wells contain no more than 0.4% of DMSO. Controls were used to calculate the relative proliferation in the treatment wells. Assays were performed in triplicate for all cases.

The test system of assay [2] is amastigote forms of T. cruzi in Vero cells (Dm28 clone, DTU Tc I). It is filed as cell-based. As to conditions: 24 h. As to the method: as §1
The number of amastigotes per cell as well as the number of infected cells was then counted.

Assay [3] has as its system Trypanosoma cruzi trypomastigotes (Dm28c). Put plainly: Trypomastigote viability (resazurin, 24 h). It is filed as cell-based. To be noted: fixed concentrations, Fig. 1. As to the method: Screening - Entities, dissolved in dimethylsulfoxide (DMSO, Sigma) before use and then diluted in a culture milieu, were firstly tested against epimastigotes of T. cruzi [Tulahuen 2 strain, discrete typing unit (DTU) Tc VI] as previously described.[14] ^, [15] […] The system was incubated at 28 °C for five days and to assess cell proliferation, cell density was monitored at 610 nm at time 0 (Ap0) and five days post incubation (Ap). All measures were normalised to the control population at day 0 (Ac0) and at day 5 (Ac5). Control parasites were incubated with 0.4% DMSO, corresponding to the highest DMSO concentration of the well. The percentage of parasite inhibition was calculated as: (Ap - Ap0)/(Ac5 - Ac0) × 100. This assay was independently performed three times. […] Secondly,[16] Vero (ATCC® CCL-81™) cells were infected with T. cruzi metacyclic trypomastigotes from 15 days old Dm28 clone (DTU Tc I) epimastigote cultures. […] Viability was analysed using resazurin, which is reduced to highly fluorescent resorufin. […] Fluorescence (excitation 530 nm / emission 590 nm) was measured in a Thermo Scientific Varioskan® Flash Multimode plate spectrofluorimeter instrument. […] Infected cells and amastigotes per cell were counted from randomly selected fields (400 cells per conditions). Two independent infections with trypomastigotes pre-treated with entities by two independent technicians were analysed. […]

Where [4] appears, read: epimastigotes Tulahuen 2, 5 days.
The mark [5] stands for this setting: Ca2+ 1 mM, read-out: IC50,epi with excess of Ca2+.

For orientation: IC50 means the concentration needed to halve the response being measured. The inhibition is the drop in the measured response relative to a control, in per cent.

In turn, `CCOC(=O)C1=C(COCCN)NC(C)=C(C(=O)OC)C1c1ccccc1Cl` (centres unmarked) [Amlod, Amlodipine] yielded an SIepi in assay [1] of 7.00. For the same molecule, the IC50 in assay [1] (setting [4]) was 13.7 µM; in the assay with J774.1A macrophages (macrophages, MTT) it was 95.7 µM; in the assay on epimastigote T. cruzi (setting [5]) it was around 25 µM.
Take `O=C(Cn1ccnc1[N+](=O)[O-])NCc1ccccc1` [Bnz, Benznidazole]: the SIepi in assay [1] was found to be 50.2. Moreover, the IC50 was determined as 4.93 µM in assay [1] (setting [4]) and 247 µM in the assay with J774.1A macrophages (macrophages, MTT).
Molecule `C[C@H]1c2cccc(O)c2C(=O)C2=C(O)[C@]3(O)C(=O)C(C(N)=O)=C(O)[C@@H](N(C)C)[C@@H]3[C@@H](O)[C@@H]21` [Dox, Doxycycline] registered an SIepi in assay [1] of 1.24. The IC50 is 19.1 µM in assay [1] (setting [4]) and 23.8 µM in the assay with J774.1A macrophages (macrophages, MTT).
For `C#Cc1cccc(Nc2ncnc3cc(OCCOC)c(OCCOC)cc23)c1` [Erlo, Erlotinib], in assay [1], the “anti-epimastigote activity in the initial screening (in words)” value is “did not display anti-T. cruzi activities in the assayed conditions”.
With `NCC1(CC(=O)O)CCCCC1` [Gaba, Gabapentin], the IC50 in assay [1] (TULAHUEN) was 6.01 µM; in the assay on J774.1A macrophages, 19.1 µM; in the assay with epimastigote T. cruzi (read-out: IC50,epi with excess of Ca2+), above 25 µM; in the assay with epimastigote T. cruzi (read-out: IC50,epi with excess of glutamate), above 25 µM.
In assay [1], `CC(=O)N1CCN(c2ccc(OCC3COC(Cn4ccnc4)(c4ccc(Cl)cc4Cl)O3)cc2)CC1` (centres unmarked) [Ket, Ketoconazole] yielded an SIepi of 2.60. Besides, the IC50 turned out to be 5.13 µM in assay [1] (setting [4]) and 13.3 µM in the assay with J774.1A macrophages (macrophages, MTT).
For the molecule `CS(=O)(=O)CCNCc1ccc(-c2ccc3ncnc(Nc4ccc(OCc5cccc(F)c5)c(Cl)c4)c3c2)o1` [Lapa, Lapatinib], the IC50 in assay [1] (setting [4]) came to 16.6 µM; in the assay on J774.1A macrophages (macrophages, MTT), 7.6 µM.
With `CCOC(=O)N1CCC(=C2c3ccc(Cl)cc3CCc3cccnc32)CC1` [Lorat, Loratadine], the SIepi in assay [1] is on record as 8.21. The IC50 was determined as 0.95 µM in assay [1] (setting [4]) and 7.8 µM in the assay with J774.1A macrophages (macrophages, MTT).
In assay [1], `NC(=O)NN=C1C=Cc2ccccc2C1=O` [Naft, Naftazone] came in with an SIepi of 135.7. The IC50 in assay [1] (setting [4]) worked out at 0.75 µM; with J774.1A macrophages (macrophages, MTT), 102 µM; with epimastigote T. cruzi (setting [5]) it was 2.8 µM; in the assay on epimastigote T. cruzi (NAC 1 mM, read-out: IC50,epi with excess of N-acetyl-L-cysteine (NAC)), 1.9 µM; with epimastigote T. cruzi (glutamate 1 mM, read-out: IC50,epi with excess of glutamate), 13.5 µM. Besides, the “%dnac: percentage of decrease in the number of amastigotes per treated Vero cell respect to control” value is recorded as 0% in assay [2] (6.25 µM), 0% in assay [2] (12.5 µM) and 24% in assay [2] (25 µM). For the same molecule, the results for the “%ucell: percentage of uninfected Vero cells with amastigotes respect to untreated parasites” value in assay [2] (6.25 µM), in assay [2] (12.5 µM) and in assay [2] (25 µM) were 0%, 0% and 15%, respectively. In addition, the “anti-trypomastigote activity (in words)” value in assay [3] is “excellent cytotoxic agent for this form of the parasite”.
For `CC1CS(=O)(=O)CCN1/N=C/c1ccc([N+](=O)[O-])o1` (centres unmarked) [Nfx, nifurtimox], the inhibition at 25 µM is 61% in the assay with epimastigote T. cruzi (with Ca2+ (1 mM)); 55% with epimastigote T. cruzi (with Glu (1 mM)); 20% with epimastigote T. cruzi (with NAC (1 mM)); 70% in the assay with epimastigote T. cruzi (without Ca2+); 70% in the assay on epimastigote T. cruzi (without Glu); 74% in the assay with epimastigote T. cruzi (without NAC).
The molecule `O=C1CN(/N=C/c2ccc([N+](=O)[O-])o2)C(=O)N1` [Nitrof, Nitrofurantoin] gave an SIepi in assay [1] of 4.59. In addition, the IC50 in assay [1] (setting [4]) was determined as 13.3 µM; with J774.1A macrophages (macrophages, MTT) it was 61.1 µM.
Regarding `CCC(C)(C)C(=O)O[C@H]1C[C@@H](C)C=C2C=C[C@H](C)[C@H](CC[C@@H]3C[C@@H](O)CC(=O)O3)[C@H]21` [Simv, Simvastatin], in assay [1], the SIepi is given as 0.88. Further, the IC50 worked out at 7.36 µM in assay [1] (setting [4]) and 6.5 µM in the assay with J774.1A macrophages (macrophages, MTT).
As for `CCN(CC)CCNC(=O)c1c(C)[nH]c(/C=C2\C(=O)Nc3ccc(F)cc32)c1C` [Sun, Sunitinib], in assay [1], the “anti-epimastigote activity in the initial screening (in words)” value is “did not display anti-T. cruzi activities in the assayed conditions”.
In the case of `CN(C/C=C/C#CC(C)(C)C)Cc1cccc2ccccc12` [Terb, Terbinafine], the SIepi in assay [1] came out at 3.05. In addition, the IC50 in assay [1] (setting [4]) was 21.4 µM; in the assay with J774.1A macrophages (macrophages, MTT), 65 µM. Moreover, the entries for the “%dnac: percentage of decrease in the number of amastigotes per treated Vero cell respect to control” value in assay [2] (6.25 µM) and in assay [2] (12.5 µM) were 20% and 23%, respectively. For the same molecule, the “%ucell: percentage of uninfected Vero cells with amastigotes respect to untreated parasites” value in assay [2] (6.25 µM) came to 4%; in assay [2] (12.5 µM) it was 15%.
